Legend:
[1] = system: HCT 116 (Colon cancer); test: cells; format: cell-based, human; conditions: Table 6; read-out: In vitro cytotoxicity HCT 116 (Colon cancer)
[2] = molecular target: T1, Topo I (Homo sapiens, UniProt P11387); test: Topo I activity assay, nuclear extracts of treated A-549 cells, supercoiled DNA; format: cell-based; parameters: Nuclear extracts from 9a-treated A-549 cells were incubated with supercoiled DNA (for Topo I); endogenous in cells; host or cells: A-549
T1 sequence (P11387 1-765): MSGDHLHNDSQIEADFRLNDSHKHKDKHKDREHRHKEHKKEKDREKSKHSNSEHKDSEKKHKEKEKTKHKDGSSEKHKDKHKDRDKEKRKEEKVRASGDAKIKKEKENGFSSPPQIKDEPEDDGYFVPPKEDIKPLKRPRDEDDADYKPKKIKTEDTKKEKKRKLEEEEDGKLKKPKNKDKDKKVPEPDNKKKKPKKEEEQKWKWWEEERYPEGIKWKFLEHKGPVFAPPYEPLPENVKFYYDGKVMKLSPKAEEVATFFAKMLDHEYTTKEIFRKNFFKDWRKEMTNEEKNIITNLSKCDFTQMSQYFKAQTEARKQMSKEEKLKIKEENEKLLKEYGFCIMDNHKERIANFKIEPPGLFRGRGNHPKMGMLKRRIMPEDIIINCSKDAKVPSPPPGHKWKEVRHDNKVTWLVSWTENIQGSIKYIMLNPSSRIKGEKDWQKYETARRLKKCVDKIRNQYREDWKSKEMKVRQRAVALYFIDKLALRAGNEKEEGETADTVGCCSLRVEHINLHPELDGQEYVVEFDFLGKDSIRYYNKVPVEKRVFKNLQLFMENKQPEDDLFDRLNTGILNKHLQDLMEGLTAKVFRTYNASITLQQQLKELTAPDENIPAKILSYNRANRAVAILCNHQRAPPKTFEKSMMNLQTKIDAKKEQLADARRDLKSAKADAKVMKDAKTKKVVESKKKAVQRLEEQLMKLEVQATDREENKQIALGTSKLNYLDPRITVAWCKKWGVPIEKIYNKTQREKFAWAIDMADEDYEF
Method: (§1) First, we determined the effect of 9a on cell cycle distribution using flow cytometry analysis. […] Because it has been shown that 1-Topo I-DNA covalent complexes enhance the transcription-dependent degradation of Topo I via a 26S proteasome pathway,^32 the effects of 9a on the expression levels of Topo I and Topo II were investigated.
(§2) Topo I activity test was performed using an assay kit (TopoGEN) according to the manufacturer's instructions. Nuclear extracts from 9a-treated A-549 cells were incubated with supercoiled DNA (for Topo I) or catenated kDNA (for Topo II) for 30 min at 37° C. Reaction mixture was separated by is 1% agarose gel in 1×TAE buffer. The gel was stained with ethidium bromide and photographed using Gel Doc XR (Bio-Rad).

[3] = system: A-549 cells; test: Apoptosis assessment, Annexin V-FITC/propidium iodide double staining; format: cell-based, human
Method: Initially, we investigated morphological cellular changes. […] PARP, a hallmark of apoptosis, was also activated by 9a.
Apoptosis was detected by Annexin V-FITC/propidium iodide double staining kit (BD Biosciences). A-549 cells were treated with 9a for 24 h or 48 h. Cells were harvested by trypsinization and washed with ice-cold PBS. Cells were labeled with annexin V-FITC and propidium iodide for 15 min at room temperature in the dark. Labeled cells were analyzed by FACSCalibur flow cytometer (Becton Dickinson).

[4] = system: human colorectal adenocarcinoma HCT116 xenograft; test: Xenograft model antitumor assay; format: in vivo, nu/nu mice; conditions: for mice showing complete regression: i.v. 7 days then i.p., n=8, 31-day study
Method: Xenograft model antitumor assay using human colorectal adenocarcinoma cell line HCT116 was performed according to the regimen in Table 2. The 31-day study utilized four groups of mice (n=8) bearing established HCT116 xenograft with mean volumes of approximately 200 mm^3 on day one. The tumor growth and animal body weight change for each treatment group were measured three times per week (FIGS. 2 and 3). Compound 9a was administered intravenously (i.v.) for 7 days and then intraperitoneally (i.p.) at 5 and 10 mg/kg once every day (QD) to the end.
Five- to six-week-old female nu/nu mice (National Laboratory Animal Center, Taiwan) were inoculated subcutaneously with 2×10^6 human colorectal adenocarcinoma HCT116 cells in flank. When the grafted tumor volume reached the average volume of 200 mm^3, mice were randomly divided into four groups (n=8). Vehicle control and compound 9a at 5 or 10 mg/kg were administered i.v. once a day (QD) for 7 days and then i.p. once a day to the end. As an experimental control group, 100 mg/kg of compound 3 was administered i.v. once a week (QWK) to the end. The length (L) and width (W) of graft was measured every 3 to 4 days to the end, and the tumor volume was calculated as LW^2/2. Results were evaluated statistically by Student's t-test. This study was approved by the Institutional Animal Care and Use Committee (IACUC) of the National Taiwan University (Taipei, Taiwan), and was performed according to the institutional guidelines.

[5] = system: MDA-MB-468 (Breast cancer); test: cells; format: cell-based, human; conditions: Table 6; read-out: In vitro cytotoxicity MDA-MB-468 (Breast cancer)
[6] = system: Topo II; test: Topo II activity assay, nuclear extracts of treated A-549 cells, catenated kDNA; format: cell-based, human
Text: as §1, with “investigated. […] Compound 9a acts directly on Topo I and results in the accumulation of covalent Topo I-DNA complexes followed by proteasomal Topo I degradation, which is the same effect as 1 and contributes to 9a's cytotoxicity.” for “investigated.”
as §2

[7] = system: A549 (Lung cancer); test: cells; format: cell-based, human; conditions: Table 6; read-out: In vitro cytotoxicity A549 (Lung cancer)

CC[C@@]1(OC(=O)CNC(Cc2ccc(OC)cc2)=NS(=O)(=O)c2ccc(C)cc2)C(=O)OCc2c1cc1n(c2=O)Cc2cc3ccccc3nc2-1 [Compound 9a]
IC50 [1]: 46.1 ± 1.74 nM | Topo I-mediated relaxation of supercoiled DNA [2]: inhibited the relaxation of supercoiled DNA | annexin V positive cell population ([3]; A-549, 24 h, vehicle […]): 3.7% | annexin V positive cell population ([3]; A-549, 48 h, vehicle 2.0%): 34.1% | mice showing complete regression ([4]; 5 mg/kg QD): Two of eight | antitumor activity in vivo (tumor growth) ([4]; 5 mg/kg QD, P<0.01, Student's t-test): significant antitumor activity | mice showing complete regression ([4]; 10 mg/kg QD): three of eight | antitumor activity in vivo (tumor growth) ([4]; 10 mg/kg QD, P<0.001, Student's t-test): significant antitumor activity | animal body weight change ([4]; 5 and 10 mg/kg QD, xenograft mice): no significant changes in body weight | IC50 [5]: 22.8 ± 2.97 nM | Topo II decatenation of kDNA [6]: failed to decatenate kineoplast DNA | IC50 [7]: 80.3 ± 6.13 nM

From US9718835B2 (China Medical University Hospital, priority 2013, dated 2017)
